In patent US20250115894A1, “Three-dimensional model of exposed microbial membranes at gas-liquid interface and preparation method thereof” (priority 2023, published 2025):
Counter-ions that a name gives are not always drawn.

How the values were obtained:
[1] = tested on: 29 recombinant Escherichia coli strains carrying plasmids with different genetic pathways; assay: In-situ gaseous exposure genotoxicity detection with hydrogel beads containing immobilized recombinant Escherichia coli strains; type: cell-based
From the text: Embodiment 5: Immobilization of 29 recombinant Escherichia coli strains carrying plasmids with different genetic pathways by hydrogel beads for genotoxicity detection of pollutants, including DNA damage, DNA repair, and oxidative stress: • (1) The nutrient in the core was a modified M9 medium, including MgCl2, CaCl2), NaCl, NH4Cl, Tris-HCl (pH-7.4) buffer, and glucose, to ensure the continued survival of the recombinant Escherichia coli strains when exposed at the air-liquid interface. • (2) The hydrogel beads containing immobilized 29 recombinant Escherichia coli strains, were assembled in a specially designed gaseous exposure system. Different concentrations (ranging from 20 to 500 mg/m^3) of gaseous methanesulfonic acid methyl ester were introduced into the exposure system for simultaneous exposure. […] In summary, a rapid analysis of the genotoxicity fingerprint of gaseous methanesulfonic acid methyl ester was conducted from the perspective of in-situ exposure.

[2] = tested on: Recombinant Escherichia coli strains with the rec A genetic pathway; assay: Fluorescent signal of rec A recombinant strains exposed to dimethyl sulfate solution, immobilized versus not immobilized; type: cell-based; settings: 50 mg/L solution of dimethyl sulfate
[3] = 20 to 500 mg/m^3, as exposure concentration increased

Row | Compound | Ina A gene expression (SOS response) ([1]; 20 to 500 mg/m^3) | pol B gene pathway expression (DNA damage/repair) ([1]; 20 to 500 mg/m^3) | rec A gene pathway expression (DNA damage/repair) ([1]; 20 to 500 mg/m^3) | rec N gene pathway expression (DNA damage/repair) ([1]; 20 to 500 mg/m^3) | sox R gene expression (SOS response) ([1]; 20 to 500 mg/m^3) | Kat G gene expression (oxidative stress) [1, 3] | ahp C gene expression (oxidative stress) [1, 3] | Fluorescent signals of rec A strains immobilized in hydrogel beads compared to not immobilized [2]
1 | COS(C)(=O)=O [methanesulfonic acid methyl ester] | downregulation | significant upregulation | significant upregulation | significant upregulation | downregulation | significant upregulation | significant upregulation | 
2 | COS(=O)(=O)OC [dimethyl sulfate] |  |  |  |  |  |  |  | stronger fluorescent signals
